Test system: THP-1 Blue, Raw Blue, HEK-blue hTLR3, HEK-Blue hTLR4, HEK-Blue hNOD2
Assay: Activation of innate immune response in reporter cell lines covering TLR and NOD2 expression
Format: cell-based
Conditions: 5 cell lines; 3 PPQ lots; highest drug substance concentration tested 10 μg/mL
Protocol: Method development, qualification, and testing for activation of innate immune response was performed. The innate immune assays performed compared 3 PPQ lots. The work was conducted using 5 cell lines to cover TLR and NOD2 expression (THP-1 Blue, Raw Blue, HEK-blue hTLR3, HEK-Blue hTLR4, HEK-Blue hNOD2). […] The highest drug substance concentration tested was 10 μg/mL. A dose of the sterile preparation of purified corticotropin at 80 U is, equivalent to approximately 1 mg of drug substance per total body weight of subject.

Compound	dose response in innate immune assays
CCCc1nc2c(N)nc3ccccc3c2s1 [CL075]	robust dose responses
CC(=O)N[C@@H]1[C@@H](O[C@H](C)C(=O)N[C@@H](C)C(=O)N[C@H](CCC(=O)O)C(N)=O)[C@H](O)[C@@H](CO)O[C@H]1O [MDP]	robust dose responses
FSL-1	robust dose responses

— patent US12440542B1, “Kits for preparing and delivering purified corticotropin” (ANI Pharmaceuticals, Inc., priority 2022, dated 2025)
